Literature values, collected in US8993576B2, “6-(1H-indol-4-yl)-4-(5-{[4-1-methylethyl)-1-piperazinyl]methyl}-1,3-oxazol-2-yl)-1H-indazole hemi succinate salt, polymorphs and pharmaceutical compositions thereof” (Glaxo Group Limited, priority 2010, dated 2015).
Where two headings read alike, the source gives them in different places.

Columns and labels:
[1] = system: Class I PI3-kinases
[2] = system: neutrophils
[3] = system: phospholipases
[4] = molecular target: CK2 protein kinase (Homo sapiens, UniProt P68400); conditions: read-out: IC50 on CK2 protein kinase
[5] = system: neutrophils; remark: listed apart in the source
[6] = system: neutrophils; conditions: treatment of neutrophils; Thelen et al. 1994

CK2 protein kinase, sequence (P68400 whole entry): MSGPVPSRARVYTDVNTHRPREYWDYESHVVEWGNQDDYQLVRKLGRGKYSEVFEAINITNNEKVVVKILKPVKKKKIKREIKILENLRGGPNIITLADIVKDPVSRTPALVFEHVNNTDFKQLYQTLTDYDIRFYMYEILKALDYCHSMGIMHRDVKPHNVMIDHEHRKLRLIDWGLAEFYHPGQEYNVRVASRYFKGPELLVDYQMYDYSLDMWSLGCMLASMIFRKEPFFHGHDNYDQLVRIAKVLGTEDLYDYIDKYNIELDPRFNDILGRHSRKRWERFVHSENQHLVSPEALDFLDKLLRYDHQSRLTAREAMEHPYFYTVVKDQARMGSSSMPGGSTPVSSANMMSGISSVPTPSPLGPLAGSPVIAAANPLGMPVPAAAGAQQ

Row | Compound | IC50 ([1]; each of the Class I PI3-kinases, Fruman et al. 1998, read-out: IC50 values against each of these PI3-kinases) [µM] | effect on superoxide release [2] | inhibitory activity on phospholipases [3] | IC50 [4] [µM] | effect on neutrophil migration [5] | IC50 ([1]; each of the four Class I PI3-kinases, read-out: IC50 values against each of the various Class I PI3-kinases) [µM] | effect on fMLP-induced respiratory burst response [6]
1 | O=c1cc(N2CCOCC2)oc2c(-c3ccccc3)cccc12 [LY294002] | 15 to 20 | block | some inhibitory activity | 5 to 10 | block |  | 
2 | COC[C@H]1OC(=O)c2coc3c2[C@@]1(C)C1=C(C3=O)[C@@H]2CCC(=O)[C@@]2(C)C[C@H]1OC(C)=O [wortmannin] |  | block |  |  | block | 0.001 to 0.01 | prevents
